Assay results as given in publication PMC6199744, “Development of Chemical Proteomics for the Folateome and Analysis of the Kinetoplastid Folateome” (ACS Infectious Diseases, 2018).
Like-named read-outs stand apart in the source and are kept apart here.

How the values were obtained:
Format in all cases: binding
[1] = molecular target: T1, HeLa cell extract proteins (Homo sapiens, UniProt O60762)
T1 construct: endogenous in cells; host or cells: HeLa cell extract

[2] = molecular target: T2, HeLa cell extract proteins (Homo sapiens, UniProt Q14CZ7)
T2 construct: endogenous in cells; host or cells: HeLa cell extract
T2 sequence (Q14CZ7 1-662): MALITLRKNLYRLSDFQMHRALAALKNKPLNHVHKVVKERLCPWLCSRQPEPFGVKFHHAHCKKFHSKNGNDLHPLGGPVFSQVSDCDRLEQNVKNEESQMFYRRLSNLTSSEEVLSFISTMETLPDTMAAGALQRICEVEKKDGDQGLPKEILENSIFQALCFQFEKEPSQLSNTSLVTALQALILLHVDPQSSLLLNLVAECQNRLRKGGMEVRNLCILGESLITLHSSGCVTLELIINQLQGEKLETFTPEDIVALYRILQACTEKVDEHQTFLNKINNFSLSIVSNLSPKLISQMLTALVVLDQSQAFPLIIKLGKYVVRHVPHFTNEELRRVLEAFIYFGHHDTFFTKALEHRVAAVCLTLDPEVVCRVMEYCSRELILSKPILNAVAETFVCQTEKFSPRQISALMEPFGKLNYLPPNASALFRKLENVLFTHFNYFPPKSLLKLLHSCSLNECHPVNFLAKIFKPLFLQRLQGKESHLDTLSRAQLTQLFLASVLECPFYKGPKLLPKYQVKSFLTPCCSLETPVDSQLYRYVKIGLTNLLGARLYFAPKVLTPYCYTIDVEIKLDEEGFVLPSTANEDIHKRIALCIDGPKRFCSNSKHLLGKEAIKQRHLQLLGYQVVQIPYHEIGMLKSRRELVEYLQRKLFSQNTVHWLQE

[3] = molecular target: T3, HeLa cell extract proteins (Homo sapiens, UniProt P30086)
T3 construct: endogenous in cells; host or cells: HeLa cell extract
T3 sequence (P30086 whole entry): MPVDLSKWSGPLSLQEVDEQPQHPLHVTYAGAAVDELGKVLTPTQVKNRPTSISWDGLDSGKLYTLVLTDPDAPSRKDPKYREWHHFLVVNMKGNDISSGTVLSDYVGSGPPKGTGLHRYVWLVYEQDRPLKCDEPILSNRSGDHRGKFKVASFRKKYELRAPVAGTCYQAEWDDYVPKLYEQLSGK

[4] = molecular target: T4, HeLa cell extract proteins (Homo sapiens, UniProt P00505)
T4 construct: endogenous in cells; host or cells: HeLa cell extract
T4 sequence (P00505 30-430): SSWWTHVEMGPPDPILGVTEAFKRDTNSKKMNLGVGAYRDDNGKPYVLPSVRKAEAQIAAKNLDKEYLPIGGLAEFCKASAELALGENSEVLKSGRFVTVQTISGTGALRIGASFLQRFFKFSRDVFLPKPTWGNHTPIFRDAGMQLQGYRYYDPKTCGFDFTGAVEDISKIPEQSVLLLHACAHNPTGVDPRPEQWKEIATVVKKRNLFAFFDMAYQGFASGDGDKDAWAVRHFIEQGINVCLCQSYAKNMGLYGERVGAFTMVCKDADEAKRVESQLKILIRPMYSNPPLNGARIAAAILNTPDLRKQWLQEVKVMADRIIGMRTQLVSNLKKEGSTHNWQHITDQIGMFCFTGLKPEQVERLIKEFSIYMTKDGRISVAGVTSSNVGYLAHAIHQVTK

[5] = molecular target: T5, HeLa cell extract proteins (Homo sapiens, UniProt P05387)
T5 construct: endogenous in cells; host or cells: HeLa cell extract
T5 sequence (P05387 whole entry): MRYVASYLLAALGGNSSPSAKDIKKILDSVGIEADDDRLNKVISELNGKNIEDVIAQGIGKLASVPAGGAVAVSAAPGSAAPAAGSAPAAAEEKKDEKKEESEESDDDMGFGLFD

[6] = molecular target: T6, HeLa cell extract proteins (Homo sapiens, UniProt P61978)
T6 construct: endogenous in cells; host or cells: HeLa cell extract

[7] = molecular target: T7, HeLa cell extract proteins (Homo sapiens, UniProt Q9HA64)
T7 construct: endogenous in cells; host or cells: HeLa cell extract
T7 sequence (Q9HA64 1-309): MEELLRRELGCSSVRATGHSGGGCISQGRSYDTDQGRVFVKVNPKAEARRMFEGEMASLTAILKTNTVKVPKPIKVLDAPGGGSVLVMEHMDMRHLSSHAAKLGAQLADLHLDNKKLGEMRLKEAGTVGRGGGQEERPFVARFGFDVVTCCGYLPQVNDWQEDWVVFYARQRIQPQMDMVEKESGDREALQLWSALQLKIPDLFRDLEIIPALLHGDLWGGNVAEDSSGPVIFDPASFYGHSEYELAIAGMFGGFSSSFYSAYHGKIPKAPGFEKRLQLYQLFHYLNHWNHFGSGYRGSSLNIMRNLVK

[8] = molecular target: T8, HeLa cell extract proteins (Homo sapiens, UniProt P13667)
T8 construct: endogenous in cells; host or cells: HeLa cell extract
T8 sequence (P13667 21-645): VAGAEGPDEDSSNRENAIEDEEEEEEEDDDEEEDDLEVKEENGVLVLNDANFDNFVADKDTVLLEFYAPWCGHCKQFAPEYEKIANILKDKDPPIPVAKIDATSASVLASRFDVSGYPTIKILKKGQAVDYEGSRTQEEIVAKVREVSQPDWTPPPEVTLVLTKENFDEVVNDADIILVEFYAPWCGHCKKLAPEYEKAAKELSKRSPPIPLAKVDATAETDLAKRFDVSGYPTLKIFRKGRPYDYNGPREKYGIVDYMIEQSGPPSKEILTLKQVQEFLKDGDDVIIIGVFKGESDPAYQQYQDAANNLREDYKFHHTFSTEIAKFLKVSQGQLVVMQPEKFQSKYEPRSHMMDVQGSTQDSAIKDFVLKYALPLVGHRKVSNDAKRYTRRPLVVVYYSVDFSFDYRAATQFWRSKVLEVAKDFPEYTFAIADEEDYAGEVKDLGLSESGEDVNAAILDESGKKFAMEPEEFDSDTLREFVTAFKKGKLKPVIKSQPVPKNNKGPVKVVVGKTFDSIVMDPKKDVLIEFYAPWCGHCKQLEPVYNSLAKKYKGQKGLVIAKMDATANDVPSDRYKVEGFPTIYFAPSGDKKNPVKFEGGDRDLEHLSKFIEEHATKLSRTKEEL

[9] = HeLa, protein PDIA4 (PROTEIN DISULFIDE-ISOMERASE A4 PRECURSOR.)
[10] = HeLa, protein FN3KRP (KETOSAMINE-3-KINASE)

T1 sequence (O60762 whole entry): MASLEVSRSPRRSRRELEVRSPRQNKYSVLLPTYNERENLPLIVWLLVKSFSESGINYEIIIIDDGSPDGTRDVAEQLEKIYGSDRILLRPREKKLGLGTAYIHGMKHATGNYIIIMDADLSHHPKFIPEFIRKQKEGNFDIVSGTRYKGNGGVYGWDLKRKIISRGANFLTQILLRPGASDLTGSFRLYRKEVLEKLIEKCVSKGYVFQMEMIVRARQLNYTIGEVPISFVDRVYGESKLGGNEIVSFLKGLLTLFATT

| SMILES | fold changes relative to vehicle control ([1]; captured protein DPM1, HeLa) | fold changes relative to vehicle control ([2]; captured protein FASTKD3, HeLa) | fold changes relative to vehicle control ([3]; protein PEBP1, HeLa) | fold changes relative to vehicle control ([4]; protein GOT2, HeLa) | fold changes relative to vehicle control ([5]; protein RPLP2, HeLa) | fold changes relative to vehicle control ([6]; protein HNRNPK, HeLa) | fold changes relative to vehicle control ([7]; protein FN3KRP, HeLa) | fold changes relative to vehicle control [8, 9] [fold] | fold changes relative to vehicle control ([1]; protein DPM1, HeLa) | fold changes relative to vehicle control ([2]; HeLa, protein FASTKD3) | fold changes relative to vehicle control ([3]; HeLa, protein PEBP1) | fold changes relative to vehicle control ([4]; HeLa, protein GOT2) | fold changes relative to vehicle control ([6]; HeLa, protein HNRNPK) | fold changes relative to vehicle control [7, 10] | fold changes relative to vehicle control ([8]; protein PDIA4, HeLa) | also measured |
| --- | --- | --- | --- | --- | --- | --- | --- | --- | --- | --- | --- | --- | --- | --- | --- | --- |
| Nc1nc2cccc(-c3ccccc3)c2n1Cc1ccc(Cl)c(Cl)c1 [compound 3] | 1.02 | 0.95 | 1.08 | 0.84 | 0.81 | 1.02 | 1.04 | 0.75 | – | – | – | – | – | – | – | – |
| CCCCCCOc1ccc(Cc2cnc(N)nc2N)cc1 [compound 1] | 0.89 | 0.93 | 1.23 | 1.12 | 0.76 | 0.99 | 1 | 1.76 | – | – | – | – | – | – | – | – |
| NCCCNc1ccc(C(=O)NC(CCC(=O)O)C(=O)O)cc1 (centres unmarked) [compound 7] | – | – | – | – | 0.82 | – | – | – | 1.04 | 0.9 | 1.07 | 0.94 | 0.95 | 1.07 | 0.87 | – |
| CCCCCCOc1cccc(Cc2cnc(N)nc2N)c1 [compound 2] | 0.84 | 0.94 | 1.9 | 2.22 | 1.65 | 1.39 | 0.9 | 2.84 | – | – | – | – | – | – | – | – |
| NCCOCCOCC(=O)Nc1nc2ncc(CNc3ccc(C(=O)NC(CCC(=O)O)C(=O)O)cc3)nc2c(=O)[nH]1 (centres unmarked) [compound 6] | – | – | – | – | 1.04 | – | – | – | 1.1 | 1.01 | 1.42 | 1.16 | 1.13 | 0.85 | 1.14 | – |
| Nc1nc2[nH]cc(CCc3ccc(C(=O)N[C@@H](CCC(=O)O)C(=O)O)cc3)c2c(=O)[nH]1 [PTX, pemetrexed] | – | – | – | – | – | – | – | – | – | – | – | – | – | – | – | fold changes relative to vehicle control [1]: 0.88; fold changes relative to vehicle control [2]: 0.86; fold changes relative to vehicle control [3]: 1.14; fold changes relative to vehicle control [4]: 0.99; fold changes relative to vehicle control [5]: 0.94; fold changes relative to vehicle control [6]: 0.96; fold changes relative to vehicle control [7]: 1.01; fold changes relative to vehicle control [8]: 1.04 |
| Nc1nc2c(c(=O)[nH]1)N(C=O)C(CNc1ccc(C(=O)N[C@@H](CCC(=O)O)C(=O)O)cc1)CN2 (some centres unmarked) [LEU, leucovorin] | – | – | – | – | 0.82 | – | – | – | 0.94 | 1.02 | 0.89 | 0.94 | 0.94 | 1.08 | 0.93 | – |
